What was measured:
[1] = molecular target: T1, human sputum elastase (HSE) (Homo sapiens, UniProt P08246); assay: Protease inhibition assay (in vitro), human sputum elastase; format: biochemical; conditions: substrate methoxysuccinyl-(Ala)2-Pro-Val-p-nitroanilide, 30 min, room temperature, pH 7.5
T1 construct: HSE was obtained from Elastin Products Company Inc., Mo., U.S.A; purchased Elastin Products Company Inc; host or cells: human sputum (from the enzyme's name)
T1 sequence (P08246 30-267): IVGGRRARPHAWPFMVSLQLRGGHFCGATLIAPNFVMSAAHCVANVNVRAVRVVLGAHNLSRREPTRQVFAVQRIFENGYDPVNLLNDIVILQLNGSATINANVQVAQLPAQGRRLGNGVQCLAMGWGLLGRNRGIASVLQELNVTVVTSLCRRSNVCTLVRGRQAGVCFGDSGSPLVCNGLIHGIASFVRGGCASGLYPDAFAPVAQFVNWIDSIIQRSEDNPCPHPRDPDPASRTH
Method: (§1) A buffer used throughout the assay was 0.1M HEPES (4-(2-hydroxyethyl)-1-piperazineethanesulfonic acid) containing 0.5M NaCl, pH 7.5. Twenty-five microliters of 2 mM methoxysuccinyl-(Ala)2 -Pro-Val-p-nitroanilide (100 mM of dimethyl sulfoxide solution were diluted in the buffer) and 50 μl of sample (10 μl of sample in organic solvent was diluted 5-fold in the buffer) were mixed in wells of 96 well-microliter plate. An absorbance of the mixture in wavelength at 415 nm was measured by a microplate reader (Corona Electric Co., Ibaraki, Japan). After the measurement, 25 μl of 6 μg/ml human sputum elastase (HSE) was added and the mixture was allowed to stand for 30 minutes at room temperature. Then, the absorbance at 415 nm was measured. Percent inhibition by drug was determined by 100×(1-"r" inhibitor present/"r" inhibitor absent), where "r" is absorbance after 30 minutes incubation minus absorbance before enzyme addition. Effect of inhibitors against porcine pancreas elastase (Type IV, 5 μg/ml final) was assayed similarly using N-succinyl-(Ala)3 -p-nitroanilide. HSE was obtained from Elastin Products Company Inc., Mo., U.S.A. All other substrates and protease were purchased from Sigma Chemicals Co.

[2] = molecular target: T2, porcine pancreas elastase (Type IV) (Sus scrofa, UniProt P00772); assay: Protease inhibition assay (in vitro), porcine pancreas elastase; format: biochemical; conditions: IC50 Porcine pancreas elastase, substrate N-succinyl-(Ala)3-p-nitroanilide, enzyme 5 μg/ml final
T2 construct: purchased Sigma Chemicals Co; host or cells: porcine pancreas (from the enzyme's name)
T2 sequence (P00772 27-266): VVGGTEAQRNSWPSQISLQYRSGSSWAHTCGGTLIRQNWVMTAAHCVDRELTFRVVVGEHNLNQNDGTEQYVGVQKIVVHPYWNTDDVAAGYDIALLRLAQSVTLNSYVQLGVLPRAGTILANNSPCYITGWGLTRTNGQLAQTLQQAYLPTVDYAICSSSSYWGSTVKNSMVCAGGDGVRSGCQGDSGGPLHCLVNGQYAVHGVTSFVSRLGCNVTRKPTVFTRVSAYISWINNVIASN
Method: as §1

[3] = system: human sputum elastase-induced lung hemorrhage in hamsters; assay: Elastase-induced pulmonary damage (lung hemorrhage) in hamsters; format: in vivo, hamster; conditions: 5 min predose; for Hemorrhage (OD541 nm): BAL hemoglobin 3 h after elastase
Method: Hamsters under pentobarbital anesthesia were used. Saline or saline-containing human sputum elastase was instilled intratracheally via a small incision in the ventral neck region using 1-ml syringe with a 27-gauge needle. After 3 hours, animals were sacrificed by CO2 asphyxiation, each animal's trachea was reexposed. The lungs were then laveged using a 2.5-ml aliquot of saline and then withdrawing the saline, yielding a final volume of approximately 1.5 ml bronchoalveolar lavage (BAC) fluid from each animal.
The cells of BAL fluid were collected by centrifugation and were then diluted with distilled water to disrupt, and the hemoglobin contents determined spectrophotometrically at 541 nm.
Test drugs were dissolved in saline or methyl cellulose, and instilled intratracheally in the same manner as used to instill elastase, at 5 minutes before instillation of elastase.

[4] = system: human sputum elastase induced paw edema in C57BL mice; assay: Human sputum elastase induced paw edema in mice; format: in vivo, mouse; conditions: for Thickness of footpad: 15 min before HSE 20 μg/site, 2 h after HSE
Method: Male C57BL mice at the age of 7-8 weeks were obtained from Japan Clear Inc,.
Human sputum elastase (HSE) was purchased from Elastin Products Company, Inc,. The test drug was administered subcutaneously, and 15 minutes later, HSE was injected into the right hind footpad at the dosage of 20 μg/site, and saline into the left hind footpad as the control. After 2 hours of HSE injection, the paw edema was measured with the dial thickness gage, and the difference of the thickness between right and left hind footpads was calculated.

[5] = system: PPE-induced emphysema in golden Syrian hamsters; assay: Experimentally (porcine pancreatic elastase) induced emphysema in hamsters; format: in vivo, hamster; conditions: for Cst (quasi static lung compliance) / VC (vital capacity): 3 weeks after PPE
Method: Male golden Syrian hamsters, weighing approximately 120 g, were obtained from Japan SLC Inc,.
Porcine pancreatic elastase (PPE) was purchased from Elastin Products Company, Inc,. Dialferin was purchased from Japan Roche Inc,.
Hamsters were anesthetized intraperitoneally with Pentobarbital. The compound of Example 19 was dissolved in saline. Both prior art compounds A and B were suspended in 0.5% methyl cellulose. The drugs were instilled intratracheally through the oral cavity, 5 minutes before 100 μg/site of PPE in 0.2 ml of saline instillation. Three weeks after PPE instillation, the hamsters were anesthetized with Pentobarbital. Respiratory mechanics were studied in supine hamsters using a whole body, constant-volume, variable pressure plethysmograph to measue volume. A water-filled esophageal catheter was used to estimate pleural pressure. Quasi-static deflation pressure-volume (P-V) curves were obtained by intraperitoneally administered Dialferin to suppress spontaneous breathing inflating the lungs to a transpulmonary pressure (PL) of 30 cm H2 O, permitting slow deflation to a PL of 0 cm H2 O and gently aspirating to a PL of -20 cm H2 O . Quasi-static lung compliance (Cst) was defined as the slope of the steep portion of the deflation P-V curve in the mid-volume range. Vital capacity was defined as the difference in lung volume between TLC25 (volume at PL=25 cm H2 O) and RV-20 (volume at PL=-20 cm H2 O).

[6] = 1 μg/site intratracheal 5 min before PPE 100 μg/site
[7] = 10 μg/site intratracheal 5 min before PPE 100 μg/site
[8] = 100 μg/site intratracheal 5 min before PPE 100 μg/site

## CC(C)C(NC(=O)[C@@H]1CCCN1C(=O)[C@@H](NC(=O)c1ccc(C(=O)NCC(=O)O)cc1)C(C)C)C(=O)C(F)(F)F (mixture of isomers) [Example 19, 3(RS)-[[4-(carboxymethylaminocarbonyl)phenylcarbonyl]-L-valyl-L-prolyl]amino-1,1,1-trifluoro-4-methyl-2-oxopentane]
[1]
  IC50: 680 nM
[2]
  IC50: 3000 nM
[3]; 1 μg/site intratracheal
  % inhibition of elastase-induced lung hemorrhage: 10.8%
  Hemorrhage (OD541 nm): 11.59 ± 1.40 OD541 nm
[3]; 10 μg/site intratracheal
  % inhibition of elastase-induced lung hemorrhage: 93.1%
  Hemorrhage (OD541 nm): 1.663 ± 0.690 OD541 nm
[3]; 100 μg/site intratracheal
  % inhibition of elastase-induced lung hemorrhage: 105.2%
  Hemorrhage (OD541 nm): 0.2141 ± 0.020 OD541 nm
[3]; intratracheal
  ED50 elastase-induced lung hemorrhage: 2.4 μg/site
[4]; 1 mg/kg subcutaneous
  % Inhibition of paw edema: 6.4%
  Thickness of footpad: 43.8 ± 5.67 × 10^-2 mm
[4]; 10 mg/kg subcutaneous
  % Inhibition of paw edema: 20.9%
  Thickness of footpad: 37.0 ± 13.41 × 10^-2 mm
[4]; 100 mg/kg subcutaneous
  % Inhibition of paw edema: 42.3%
  Thickness of footpad: 27.0 ± 4.66 × 10^-2 mm
[5]; 1 μg/site intratracheal
  Cst (%) Inhibition: 15%
  VC (%) Inhibition: 12%
[5]; [6]
  Cst (quasi static lung compliance): 1.39 ± 0.05 ml/cmH2 O
  VC (vital capacity): 7.0 ± 0.1 mL
[5]; 10 μg/site intratracheal
  Cst (%) Inhibition: 84%
  VC (%) Inhibition: 65%
[5]; [7]
  Cst (quasi static lung compliance): 0.70 ± 0.04 ml/cmH2 O
  VC (vital capacity): 5.8 ± 0.1 mL
[5]; 100 μg/site intratracheal
  Cst (%) Inhibition: 100%
  VC (%) Inhibition: 97%
[5]; [8]
  Cst (quasi static lung compliance): 0.53 ± 0.02 ml/cmH2 O
  VC (vital capacity): 5.0 ± 0.1 mL
[5]; hamster, in vivo
  Potency compared with prior art compounds, considering Cst and VC values (in words): superior to the prior art compounds A and B
[5]; intratracheal pretreatment, 1-100 μg/site
  Effect of pretreatment on PPE-induced increases in lung mechanics (in words): prevented the development of PPE-induced increases in lung mechanics in a dose dependent manner

Source: patent publication US5296591A, “Trifluoromethylketone derivatives, processes for preparation thereof and use thereof” (Fujisawa Pharmaceutical Co., Ltd., priority 1990, dated 1994)
